Experimental data published in paper PMC5693616 (Bioorganic & medicinal chemistry letters, 2017).
Where two headings read alike, the source gives them in different places.

How the values were obtained:
[1] = system: EPAC2; details: read-out: inhibition of cAMP-mediated EPAC2 GEF activity IC50; cited from earlier work
[2] = system: EPAC2; details: read-out: EPAC2 inhibitory activity IC50; cited from earlier work
[3] = molecular target: T1, EPAC1 (Homo sapiens, UniProt O95398); details: at 100 μM; cited from earlier work
T1 sequence (O95398 1-923): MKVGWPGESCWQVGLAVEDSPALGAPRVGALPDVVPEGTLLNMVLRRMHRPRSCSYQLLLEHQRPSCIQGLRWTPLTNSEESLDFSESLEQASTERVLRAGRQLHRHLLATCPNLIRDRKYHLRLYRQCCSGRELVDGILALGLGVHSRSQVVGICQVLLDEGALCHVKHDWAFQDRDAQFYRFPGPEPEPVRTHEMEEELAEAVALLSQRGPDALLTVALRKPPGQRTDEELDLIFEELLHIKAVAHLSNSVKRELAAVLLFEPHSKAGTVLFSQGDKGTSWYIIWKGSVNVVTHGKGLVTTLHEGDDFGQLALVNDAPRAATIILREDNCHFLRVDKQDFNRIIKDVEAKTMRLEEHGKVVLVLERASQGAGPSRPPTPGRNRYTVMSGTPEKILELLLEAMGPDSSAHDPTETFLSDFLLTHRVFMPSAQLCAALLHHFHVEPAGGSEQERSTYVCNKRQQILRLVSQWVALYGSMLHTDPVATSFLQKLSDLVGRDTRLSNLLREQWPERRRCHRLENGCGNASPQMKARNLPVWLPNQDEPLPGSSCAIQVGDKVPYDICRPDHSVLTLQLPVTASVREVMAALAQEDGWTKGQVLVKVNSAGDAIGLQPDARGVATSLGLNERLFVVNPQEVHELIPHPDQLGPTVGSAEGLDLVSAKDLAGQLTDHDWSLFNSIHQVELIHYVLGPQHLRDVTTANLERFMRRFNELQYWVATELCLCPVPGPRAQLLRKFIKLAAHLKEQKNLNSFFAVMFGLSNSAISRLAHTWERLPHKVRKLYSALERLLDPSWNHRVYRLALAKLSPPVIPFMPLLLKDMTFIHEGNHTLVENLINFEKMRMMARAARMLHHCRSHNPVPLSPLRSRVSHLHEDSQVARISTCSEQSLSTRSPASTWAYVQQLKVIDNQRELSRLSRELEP

[4] = molecular target: T1, EPAC1; type: biochemical; details: for EPAC inhibitory activities (in words): Rap1b-bGDP exchange assay

Cc1cc(C)c(Nc2ccc(Cl)c(C(F)(F)F)c2)c(C)c1 [Compound 3]
IC50 [1]: 1000 nM
IC50 [2]: 400 nM
inhibition against EPAC1 [3]: no significant inhibition

CC(C)(C)c1ccc(C(=O)/C(C#N)=N/Nc2cc(Cl)cc(Cl)c2)cc1 [Compound 10, (E)-2-(4-(tert-Butyl)phenyl)-N-(3,5-dichlorophenyl)-2-oxoacetohydrazonoyl cyanide]
improvement on EPAC1 inhibitory activity compared to compound 6 ([4]; ratio of IC50 values vs compound 6): 2.5 fold

N#C/C(=N\Nc1cc(Cl)cc(Cl)c1)C(=O)c1ccc(-c2ccccc2)cc1 [Compound 26]
EPAC inhibitory activities (in words) [4]: complete loss of EPAC inhibitory activities

COc1ccc(C(=O)/C(C#N)=N/Nc2cc(Cl)cc(Cl)c2)cc1OC [Compound 27]
EPAC inhibitory activities (in words) [4]: complete loss of EPAC inhibitory activities
